Source: patent publication US5459147A, “Substituted benzimidazolyl derivatives and pharmaceutical compositions containing these compounds” (Dr. Karl Thomae GmbH, priority 1992, dated 1995)

The molecules below were run against T1, Angiotensin II-receptor (Rattus norvegicus, UniProt P25095) (assay: Angiotensin II-receptor bonding). Conditions: rats lung homogenate; 50 pM [125I]-angiotensin II; 60 minutes at 37° C., pH 7.40.
T1 construct: The tissue (rats lung) is homogenised in Tris-buffer; from tissue; host or cells: rat lung homogenate (washed 20,000×g pellet)
T1 sequence (P25095 1-359): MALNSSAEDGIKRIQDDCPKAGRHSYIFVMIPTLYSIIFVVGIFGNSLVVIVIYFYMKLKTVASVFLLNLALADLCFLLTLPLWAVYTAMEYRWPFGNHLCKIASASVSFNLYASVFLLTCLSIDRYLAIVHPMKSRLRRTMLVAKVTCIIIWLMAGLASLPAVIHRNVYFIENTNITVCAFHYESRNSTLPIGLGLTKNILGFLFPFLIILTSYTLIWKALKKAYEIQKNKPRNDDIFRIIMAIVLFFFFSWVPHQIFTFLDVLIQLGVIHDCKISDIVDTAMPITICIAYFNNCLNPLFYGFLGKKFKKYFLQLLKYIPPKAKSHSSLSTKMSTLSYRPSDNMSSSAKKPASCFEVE
Format: binding
Experimental: Description of method: Angiotensin II-receptor bonding
The tissue (rats lung) is homogenised in Tris-buffer (50 mMol Tris, 150 mMol NaCl, 5 mMol EDTA, pH 7.40) and centrifuged twice for 20 minutes at 20,000×g. The finished pellets are resuspended in incubating buffer (50 mMol Tris, 5 mMol MgCl2, 0.2% BSA, pH 7.40) 1:75, based on the moist weight of the tissue. Each 0.1 ml of homogenate is incubated for 60 minutes at 37° C. with 50 pM [^125 I]-angiotensin II (NEN, Dreieich, FRG) with increasing concentrations of the test substance in a total volume of 0.25 ml. Incubation is ended by rapid filtration through glass fiber filter mats. The filters are each washed with 4 ml of ice cold buffer (25 mMol Tris, 2.5 mMol MgCl2, 0.1% BSA, pH 7.40). The bound radioactivity is measured using a gamma-counter. The corresponding IC50 value is obtained from the dose-activity curve.

Row | IC50 | Structure (SMILES)
1 | 120 nM | CCc1nc2c(C)cc(C)nc2n1Cc1ccc2c(c1)nc(-c1ccccc1)n2CC(=O)O [Substance A, 1-hydroxycarbonylmethyl-2-phenyl-5-[(2-ethyl-4,6-dimethyl-imidazo[4,5-b]pyridin-1-yl)-methyl]-benzimidazole-trihydrate]
2 | 23 nM | CCCc1nc2c(C)cc(-c3nc4ccccc4n3C)cc2n1Cc1ccc2nc(-c3ccccc3)n(CC(=O)O)c2c1 [Substance B, 1-hydroxycarbonylmethyl-2-phenyl-6-[(2-n-propyl-4-methyl-6-(1-methyl-benzimidazol-2-yl)-benzimidazol-1-yl)-methyl]-benzimidazole]
3 | 2.3 nM | CCCc1nc2c(C)cc(-c3nc4ccccc4n3C)cc2n1Cc1ccc2c(c1)nc(-c1ccccc1)n2Cc1nnn[nH]1 [Substance C, 1-[(1H-tetrazol-5-yl)-methyl]-2-phenyl-5-[(2-n-propyl-4-methyl-6-(1-methyl-benzimidazol-2-yl)-benzimidazol-1-yl)-methyl]-benzimidazole]
